{
  "source": "patent US20240025906A1",
  "about": "(NEURON23, INC., priority 2022, published 2024)",
  "key": {"[1]": {"system": "JAK1/TYK2 pSTAT5 (Tyr694/699) in THP-1 cell line", "assay": "IFNa-stimulated JAK1/TYK2 pSTAT5 (Tyr694/699) inhibition cellular assay, AlphaLISA", "type": "cell-based", "settings": "THP-1 cells, IFNa-stimulated, AlphaLISA (Assay B), read-out: Cellular THP1_IFNa-pSTATS_IC50", "outline": "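THP-1, 2e4 cells/well, HBSS; cpd 1 h 37 °C (10000–0.04 nM final, 6-fold, 8 pt); IFNa 100 ng/mL added, 30 min; lyse, freeze −80 °C; pSTAT5 AlphaLISA, 615 nm; 4PL IC50, bottom fixed 0, slope −1.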"}, "[2]": {"target": "T1, TYK2 JH2 (Homo sapiens, UniProt P29597)", "T1 construct": "purchased DiscoverX (KINOMEscan KdELECT service); host or cells: E. coli BL21-derived (T7 phage display) or HEK-293", "T1 sequence (P29597 589-875 limits assumed)": "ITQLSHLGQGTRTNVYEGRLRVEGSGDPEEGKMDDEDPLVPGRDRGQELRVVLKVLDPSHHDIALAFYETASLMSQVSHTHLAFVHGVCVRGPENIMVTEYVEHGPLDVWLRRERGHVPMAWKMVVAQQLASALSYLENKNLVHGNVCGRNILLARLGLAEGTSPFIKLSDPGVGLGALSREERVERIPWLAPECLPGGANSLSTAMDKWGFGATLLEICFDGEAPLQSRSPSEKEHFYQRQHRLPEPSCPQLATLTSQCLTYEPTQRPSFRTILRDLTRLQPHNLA", "assay": "TYK2 JH2 binding assay (KINOMEscan KdELECT competitive binding)", "settings": "TYK2 JH2 domain, KINOMEscan KdELECT (Assay A); read-out: Biochemical TYK2_JH2_Kd", "outline": "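Competition binding, KdELECT format. Kinase (phage-tagged, E. coli BL21-derived host; or HEK-293, DNA-tagged) + ligand-coated streptavidin beads + cpd, 1 h RT, final DMSO 0.9%. Wash, elute 30 min with 0.5 μM non-biotinylated ligand; qPCR readout. Kd: 11-pt, 3-fold series.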"}},
  "note": "Where two headings read alike, the source gives them in different places.",
  "data": [
    {"compound": "CNc1ncc(C2CCOC2=O)c2cc(NC(=O)C3CC3)ncc12", "note": "(centres unmarked) [Example 86, N-(8-(methylamino)-5-(2-oxotetrahydrofuran-3-yl)-2,7-naphthyridin-3-yl)cyclopropanecarboxamide]", "values": [
      {"measurement": "IC50", "setting": "[1]; Homo sapiens", "result": "> 500", "unit": "nM"},
      {"measurement": "Kd", "setting": "[2]", "result": "≤ 100", "unit": "nM"}
    ]},
    {"compound": "CNc1ncc(-c2ccn(CC#N)n2)c2cc(NC(=O)C3CC3)ncc12", "note": "[Example 87, N-(5-(1-(cyanomethyl)-1H-pyrazol-3-yl)-8-(methylamino)-2,7-naphthyridin-3-yl)cyclopropanecarboxamide]", "values": [
      {"measurement": "IC50", "setting": "[1]; Homo sapiens", "result": "> 500", "unit": "nM"},
      {"measurement": "Kd", "setting": "[2]", "result": "≤ 100", "unit": "nM"}
    ]},
    {"compound": "CNc1ncc(CC(F)(F)F)c2cc(NC(=O)C3CC3)ncc12", "note": "[Example 88, N-(8-(methylamino)-5-(2,2,2-trifluoroethyl)-2,7-naphthyridin-3-yl)cyclopropanecarboxamide]", "values": [
      {"measurement": "IC50", "setting": "[1]; Homo sapiens", "result": "> 500", "unit": "nM"},
      {"measurement": "Kd", "setting": "[2]", "result": "≤ 100", "unit": "nM"}
    ]},
    {"compound": "CNc1ncc(-c2ncccc2OC)c2cc(NC(C)=O)ncc12", "note": "[Example 89, N-(5-(3-methoxypyridin-2-yl)-8-(methylamino)-2,7-naphthyridin-3-yl)acetamide]", "values": [
      {"measurement": "IC50", "setting": "[1]; Homo sapiens", "result": "> 500", "unit": "nM"},
      {"measurement": "Kd", "setting": "[2]", "result": "100 to 1000", "unit": "nM"}
    ]},
    {"compound": "CNc1ncc(-c2ccccc2)c2cc(NC(C)=O)ncc12", "note": "[Example 90, N-(8-(methylamino)-5-phenyl-2,7-naphthyridin-3-yl)acetamide]", "values": [
      {"measurement": "IC50", "setting": "[1]; Homo sapiens", "result": "> 500", "unit": "nM"},
      {"measurement": "Kd", "setting": "[2]", "result": "≤ 100", "unit": "nM"}
    ]},
    {"compound": "CNc1ncc(-c2ncccc2OC)c2cc(Nc3ccccn3)ncc12", "note": "[Example 91, 4-(3-methoxypyridin-2-yl)-N^1-methyl-N^6-(pyridin-2-yl)-2,7-naphthyridine-1,6-diamine]", "values": [
      {"measurement": "IC50", "setting": "[1]; Homo sapiens", "result": "> 500", "unit": "nM"},
      {"measurement": "Kd", "setting": "[2]", "result": "100 to 1000", "unit": "nM"}
    ]},
    {"compound": "CNc1ncc(-c2ccccc2)c2cc(Nc3ccccn3)ncc12", "note": "[Example 92, N^1-methyl-4-phenyl-N^6-(pyridin-2-yl)-2,7-naphthyridine-1,6-diamine]", "values": [
      {"measurement": "IC50", "setting": "[1]; Homo sapiens", "result": "> 500", "unit": "nM"},
      {"measurement": "Kd", "setting": "[2]", "result": "≤ 100", "unit": "nM"}
    ]},
    {"compound": "CNc1ncc(-c2ccccc2)c2cc(NCC3CC3)ncc12", "note": "[Example 93, N^6-(cyclopropylmethyl)-N^1-methyl-4-phenyl-2,7-naphthyridine-1,6-diamine]", "values": [
      {"measurement": "IC50", "setting": "[1]; Homo sapiens", "result": "> 500", "unit": "nM"},
      {"measurement": "Kd", "setting": "[2]", "result": "1000 to 10000", "unit": "nM"}
    ]},
    {"compound": "CNc1ncc(-c2ccccc2)c2cc(NCC(F)(F)F)ncc12", "note": "[Example 94, N^1-methyl-4-phenyl-N^6-(2,2,2-trifluoroethyl)-2,7-naphthyridine-1,6-diamine]", "values": [
      {"measurement": "IC50", "setting": "[1]; Homo sapiens", "result": "> 500", "unit": "nM"},
      {"measurement": "Kd", "setting": "[2]", "result": "100 to 1000", "unit": "nM"}
    ]},
    {"compound": "O=C(Nc1cc2c(-c3ccccc3)cnc(Cl)c2cn1)C1CC1", "note": "[Example 95, N-(8-chloro-5-phenyl-2,7-naphthyridin-3-yl)cyclopropanecarboxamide]", "values": [
      {"measurement": "IC50", "setting": "[1]; Homo sapiens", "result": "> 500", "unit": "nM"},
      {"measurement": "Kd", "setting": "[2]", "result": "100 to 1000", "unit": "nM"}
    ]},
    {"compound": "CCc1ncc(-c2ccccc2)c2cc(NC(=O)C3CC3)ncc12", "note": "[Example 96, N-(8-ethyl-5-phenyl-2,7-naphthyridin-3-yl)cyclopropanecarboxamide]", "values": [
      {"measurement": "IC50", "setting": "[1]; Homo sapiens", "result": "> 500", "unit": "nM"},
      {"measurement": "Kd", "setting": "[2]", "result": "≤ 100", "unit": "nM"}
    ]},
    {"compound": "CNc1ncc(-c2ccccc2)c2cc(NCc3ccc(OC)cc3)ncc12", "note": "[Example 98, N^6-(4-methoxybenzyl)-N^1-methyl-4-phenyl-2,7-naphthyridine-1,6-diamine]", "values": [
      {"measurement": "IC50", "setting": "[1]; Homo sapiens", "result": "> 500", "unit": "nM"},
      {"measurement": "Kd", "setting": "[2]", "result": "1000 to 10000", "unit": "nM"}
    ]},
    {"compound": "CNc1ncc(-c2ccccc2)c2cc(NC(=O)C3(C)CC3)ncc12", "note": "[Example 101, 1-methyl-N-(8-(methylamino)-5-phenyl-2,7-naphthyridin-3-yl)cyclopropane-1-carboxamide]", "values": [
      {"measurement": "IC50", "setting": "[1]; Homo sapiens", "result": "> 500", "unit": "nM"},
      {"measurement": "Kd", "setting": "[2]", "result": "≤ 100", "unit": "nM"}
    ]},
    {"compound": "CNc1ncc(-c2ccccc2)c2cc(NC(=O)C3CC3F)ncc12", "note": "(centres unmarked) [Example 103, 2-fluoro-N-(8-(methylamino)-5-phenyl-2,7-naphthyridin-3-yl)cyclopropane-1-carboxamide]", "values": [
      {"measurement": "IC50", "setting": "[1]; Homo sapiens", "result": "> 500", "unit": "nM"},
      {"measurement": "Kd", "setting": "[2]", "result": "≤ 100", "unit": "nM"}
    ]},
    {"compound": "CNc1ncc(-c2ccccc2)c2cc(NC(=O)C3CC3F)ncc12", "note": "(centres unmarked) [Example 104, 2-fluoro-N-(8-(methylamino)-5-phenyl-2,7-naphthyridin-3-yl)cyclopropane-1-carboxamide]", "values": [
      {"measurement": "IC50", "setting": "[1]", "result": "> 500", "unit": "nM"},
      {"measurement": "Kd", "setting": "[2]", "result": "≤ 100", "unit": "nM"}
    ]},
    {"compound": "CNc1ncc(-c2ccccc2)c2cc(NC(=O)C3CC3(F)F)ncc12", "note": "(centres unmarked) [Example 105, 2,2-difluoro-N-(8-(methylamino)-5-phenyl-2,7-naphthyridin-3-yl)cyclopropane-1-carboxamide]", "values": [
      {"measurement": "IC50", "setting": "[1]; Homo sapiens", "result": "> 500", "unit": "nM"},
      {"measurement": "Kd", "setting": "[2]", "result": "≤ 100", "unit": "nM"}
    ]}
  ]
}
